Patent publication US9457037B2, “Combination composition, comprising as active ingredients L-carnitine or propionyl L-carnitine, for the prevention or treatment of chronic venous insufficiency” (SIGMA-TAU INDUSTRIE FARMACEUTICHE RIUNITE S.P.A., priority 2010, dated 2016)

Tests used:
[1] = system: recto-anus swelling induced by croton oil; test: Croton oil-induced hemorrhoid model in rats (swelling of the recto-anus, RAC); type: in vivo, rat; conditions: with croton oil (3%) induction, 24 h after induction; oral once per day for five days; 20 mg/kg carnitines, 30 mg/kg flavonoids; male SD rats, n = 5
Procedure: Male SD rats (6 weeks old, approximately 140 g) were purchased from Harlan Sprague Dawley and allowed to acclimate for 1 week. The rats were maintained in a pathogen-free facility in accordance with the National Research Council of Laboratory Animal care and use guidelines. Each experiment was preformed with age-matched rats 7-8 weeks old. The croton oil-induced hemorrhoid model in rats was performed according to the method published by Nishiki (Nishiki et al. (1988) Folia Pharmacology Japan 92:215-225; Nishiki et al. (1988) Folia Pharmacol. Japan 92:227-240). Briefly, a cotton swab with a diameter of 4 mm soaked with 0.16 mL of inducer (deionized water:pyridine:ethyl ether:6% croton oil/ethyl ether (1:4:5:10) was applied to the rat's anus for 12 seconds. The final concentration of croton oil was 3%. The edema developed linearly until 7-8 hours after application and the severity of the edema was sustained for more than 24 hours. Twenty-four hours later, recto-anus tissue (approx. 10 mm long) was isolated after the rats were euthanized. The weights of rat body and recto-anus were measured. The recto-anus coefficient (RAC) was calculated using the formula: weight of recto-anus (mg)/body weight (g). […]
Twenty-four hours after hemorrhoid induction with croton oil the RAC of rats was determined.

[2] = system: isolated aorta from spontaneously hypertensive rats; test: Relaxant effect on aortic rings precontracted by phenylephrine; design: species or system rat; conditions: 100 micro-molar each component, final concentration in organ chamber; rings precontracted by phenylephrine (1 micromolar); n=8
Procedure: The objective of this study was to investigate the vasoarelaxation effects of the compositions of the invention using isolated aorta from spontaneously hypertensive rats. The compounds tested were used at a concentration expressed as final concentration in the organ chamber. Male spontaneously hypertensive rats (SHR) 10-12 weeks old, weighing 250-300 g, were housed at 24±2° C. with 60±20% relative humidity, on a 12-h light-dark cycle. Rats were given free access to a diet of standard food and water. All experiments were performed according to the guidelines for the ethical treatment of animals of the European Union. The rats were killed by cervical dislocation and the aortae were rapidly dissected. […] Aortic rings were mounted under a basal tension of 2 g in 20 mL organ baths containing PSS and attached to an isometric transducer (Harvard UF-1); the signal was recorded by a Powerlab data acquisition system (AD-Instruments). […] The relaxant effect of compounds tested was assessed by adding the compound to aortic rings precontracted by phenylephrine (1 micromolar). […] All the results were expressed as a percentage of the maximal contraction of phenylephrine-induced responses. Results are expressed as percentages from the initial precontraction level. The significance was calculated on the actual contraction values means±SE (n=8 aorta preparations per group). […]

| Structure (SMILES) | RAC (recto-anus coefficient: weight of recto-anus (mg)/body weight (g)) [1] | % RELAXATION [2] [%] |
| --- | --- | --- |
| COc1ccc([C@@H]2CC(=O)c3c(O)cc(O[C@@H]4O[C@H](CO[C@@H]5O[C@@H](C)[C@H](O)[C@@H](O)[C@H]5O)[C@@H](O)[C@H](O)[C@H]4O)cc3O2)cc1O [Hesperidine, hesperidine] | 2.07 | 9 |
| CCC(=O)O[C@H](CC(=O)[O-])C[N+](C)(C)C [Propionyl L-carnitine, propionyl L-carnitine] | 1.96 | 28 |
